The record followed here is publication PMC11840788, “3,3′-Diindolylmethane (DIM): A Molecular Scaffold for Inhibition of WWP1 and WWP2, Members of the NEDD4 Family HECT E3 Ligases” (ACS Omega, 2025).

The target in the assay is T1, WWP2 (Homo sapiens, UniProt O00308).
T1 construct: made in house; host or cells: E. coli
The assay can be described thus: STD NMR binding, WWP2. To be noted: 500 μM ligand, 20 μM protein. As to the method: Given the similarities between WWP1 and WWP2 HECT domains, we speculated that the relatively low sensitivity of DSF may not be able to detect weak WWP2-I3C interactions and therefore opted to investigate further using STD NMR. STD NMR is a versatile ligand-based NMR approach, relying on selective saturation of the protein. This saturation is transferred to the ligand when and if the ligand binds, causing a reduction of the signal intensities. The STD intensities are calculated as the difference of the reference spectra (where selective saturation is off) minus the irradiated spectra, and they are proportional to the vicinity of the protein surface. […]
An Amicon centrifuge filter unit with a 10 kDa MW cutoff was used to exchange the protein in 25 mM d19-2,2-bis(hydroxymethyl)-2,2′,2″-nitrilotriethanol, 100 mM NaCl and 1.0 mM DTT buffer pH* 8.9 (uncorrected for the deuterium isotope effect on the pH glass electrode) in D2O. […] All the NMR experiments were performed on a Bruker Avance 800.23 MHz at 278 K. Binding epitope mappings were obtained by determining the initial slopes (STD0) calculated by performing a least-squares fitting of the following monoexponential curve: [drawing 1] where STD(tsat) is the STD intensity for a saturation time, tsat, STDmax is the maximum STD intensity and ksat is the rate constant for saturation transfer. […]

T1 sequence (O00308 whole entry): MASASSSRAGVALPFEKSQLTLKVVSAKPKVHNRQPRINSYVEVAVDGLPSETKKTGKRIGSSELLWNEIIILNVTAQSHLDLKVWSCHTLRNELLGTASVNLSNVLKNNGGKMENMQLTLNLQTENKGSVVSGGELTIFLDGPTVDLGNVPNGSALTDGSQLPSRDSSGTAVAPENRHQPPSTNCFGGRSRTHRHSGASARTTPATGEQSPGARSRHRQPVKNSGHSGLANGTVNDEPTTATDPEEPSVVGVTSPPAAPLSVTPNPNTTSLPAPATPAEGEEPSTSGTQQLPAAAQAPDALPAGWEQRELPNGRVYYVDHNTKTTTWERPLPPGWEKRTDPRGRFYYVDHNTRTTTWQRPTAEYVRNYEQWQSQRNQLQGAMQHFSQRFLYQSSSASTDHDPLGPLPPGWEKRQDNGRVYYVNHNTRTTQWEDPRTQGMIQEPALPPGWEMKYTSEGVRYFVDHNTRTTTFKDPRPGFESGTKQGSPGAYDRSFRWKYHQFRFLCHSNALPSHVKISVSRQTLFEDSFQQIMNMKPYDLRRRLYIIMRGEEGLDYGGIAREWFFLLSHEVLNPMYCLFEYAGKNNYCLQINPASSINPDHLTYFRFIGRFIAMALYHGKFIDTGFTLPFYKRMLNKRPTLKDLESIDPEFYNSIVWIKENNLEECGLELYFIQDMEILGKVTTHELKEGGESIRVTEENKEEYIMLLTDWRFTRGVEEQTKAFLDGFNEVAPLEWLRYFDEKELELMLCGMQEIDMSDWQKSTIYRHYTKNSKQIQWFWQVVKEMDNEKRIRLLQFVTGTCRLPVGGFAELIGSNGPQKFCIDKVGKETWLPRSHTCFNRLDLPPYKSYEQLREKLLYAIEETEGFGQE

On to `OCc1c[nH]c2ccccc12` [Compound I3C, Indole-3-carbinol, reference compound], for which the “STD intensities, WWP2-I3C complex (in words, compared with WWP1)” value is reported as “much lower”.
